Values of other authors, collected in paper PMC10026531 (Clinical Pharmacology in Drug Development, 2022).

Conditions: in vivo, po

SMILES: O=c1ccc2ccc(OCCCCN3CCN(c4cccc(Cl)c4Cl)CC3)cc2[nH]1 [dehydro‐aripiprazole]
- share of the parent drug exposure in plasma: 40%
